Values of other authors in article PMC8513935.

assay: log P octanol/water from commercial databases, averaged (the ESI); details: Octanol (wet), 25 C

SMILES	log K of transfer, water to solvent [log10 K]
Cc1ccccc1C	3.12
O=C1CCCC1	0.38
CCCCl	2.04

Further lines, results first:

log K of transfer, water to solvent [log10 K]	SMILES
4.45	c1ccc2cc3ccccc3cc2c1
3.19	CCC(C)C

assay: derived by the authors as gas->solvent minus gas->water (a hypothetical dry solvent; the ESI), not a two-phase measurement; details: 1,2-Dichloroethane, 25 C

SMILES	log K of transfer, water to solvent [log10 K]
Cc1ccccc1C	3.83
O=C1CCCC1	1.14
CCCCl	2.47

same assay, conditions: 2-Methylpropan-1-ol, 25 C

log K of transfer, water to solvent [log10 K]	SMILES
4.13	c1ccc2cc3ccccc3cc2c1

same assay, conditions: 2-Methylpropan-2-ol, 25 C

log K of transfer, water to solvent [log10 K]	SMILES
4.09	c1ccc2cc3ccccc3cc2c1
3.63	CCC(C)C

same assay, conditions: 3-Methylbutan-1-ol, 25 C

log K of transfer, water to solvent [log10 K]	SMILES
4.25	c1ccc2cc3ccccc3cc2c1

same assay, conditions: Acetone, 25 C

log K of transfer, water to solvent [log10 K]	SMILES
5.19	c1ccc2cc3ccccc3cc2c1

same assay, conditions: Acetonitrile, 25 C

log K of transfer, water to solvent [log10 K]	SMILES
4.63	c1ccc2cc3ccccc3cc2c1

same assay, conditions: Benzene, 25 C

log K of transfer, water to solvent [log10 K]	SMILES
5.35	c1ccc2cc3ccccc3cc2c1

same assay, conditions: Butan-1-ol, 25 C

SMILES	log K of transfer, water to solvent [log10 K]
CCCCl	2.08
c1ccc2cc3ccccc3cc2c1	4.39

same assay, conditions: Butan-2-ol, 25 C

log K of transfer, water to solvent [log10 K]	SMILES
4.23	c1ccc2cc3ccccc3cc2c1

same assay, conditions: Butanone, 25 C

SMILES	log K of transfer, water to solvent [log10 K]
CCCCl	2.46
c1ccc2cc3ccccc3cc2c1	5.29

same assay, conditions: Butyronitrile, 25 C

log K of transfer, water to solvent [log10 K]	SMILES
5.14	c1ccc2cc3ccccc3cc2c1

same assay, conditions: CCl4, 25 C

SMILES	log K of transfer, water to solvent [log10 K]
Cc1ccccc1C	3.87
O=C1CCCC1	0.61
CCCCl	2.47
c1ccc2cc3ccccc3cc2c1	5.14

same assay, conditions: Chlorobenzene, 25 C

log K of transfer, water to solvent [log10 K]	SMILES
5.42	c1ccc2cc3ccccc3cc2c1

same assay, conditions: Chloroform, 25 C

SMILES	log K of transfer, water to solvent [log10 K]
Cc1ccccc1C	3.91
CCCCl	2.41
c1ccc2cc3ccccc3cc2c1	5.37

same assay, conditions: Cyclohexane, 25 C

SMILES	log K of transfer, water to solvent [log10 K]
Cc1ccccc1C	3.32
c1ccc2cc3ccccc3cc2c1	4.49

same assay, conditions: Cyclohexanone, 25 C

log K of transfer, water to solvent [log10 K]	SMILES
5.5	c1ccc2cc3ccccc3cc2c1
3.64	CCC(C)C

SMILES	log K of transfer, water to solvent [log10 K]
CCCCl	2.45

same assay, conditions: Decan-1-ol, 25 C

log K of transfer, water to solvent [log10 K]	SMILES
4.68	c1ccc2cc3ccccc3cc2c1

same assay, conditions: Di-n-butyl ether, 25 C

log K of transfer, water to solvent [log10 K]	SMILES
0.08	O=C1CCCC1
4.76	c1ccc2cc3ccccc3cc2c1

same assay, conditions: Dichloromethane, 25 C

log K of transfer, water to solvent [log10 K]	SMILES
5.59	c1ccc2cc3ccccc3cc2c1

same assay, conditions: Diethyl Ether, 25 C

log K of transfer, water to solvent [log10 K]	SMILES
4.94	c1ccc2cc3ccccc3cc2c1

same assay, conditions: Ethanol, 25 C

log K of transfer, water to solvent [log10 K]	SMILES
4.59	c1ccc2cc3ccccc3cc2c1

same assay, conditions: Heptan-1-ol, 25 C

log K of transfer, water to solvent [log10 K]	SMILES
4.55	c1ccc2cc3ccccc3cc2c1

same assay, conditions: Hexadecane, 25 C

SMILES	log K of transfer, water to solvent [log10 K]
Cc1ccccc1C	3.28
O=C1CCCC1	-0.229
CCCCl	1.96

Next, values leading:

log K of transfer, water to solvent [log10 K]	SMILES
4.54	c1ccc2cc3ccccc3cc2c1
3.76	CCC(C)C

same assay, conditions: Hexan-1-ol, 25 C

log K of transfer, water to solvent [log10 K]	SMILES
4.5	c1ccc2cc3ccccc3cc2c1

same assay, conditions: Hexane, 25 C

SMILES	log K of transfer, water to solvent [log10 K]
CCCCl	2.23
c1ccc2cc3ccccc3cc2c1	4.42

same assay, conditions: Methanol, 25 C

log K of transfer, water to solvent [log10 K]	SMILES
4.22	c1ccc2cc3ccccc3cc2c1

same assay, conditions: Octan-1-ol(dry), 25 C

SMILES	log K of transfer, water to solvent [log10 K]
Cc1ccccc1C	3.24
O=C1CCCC1	0.22
CCCCl	2
c1ccc2cc3ccccc3cc2c1	4.52

same assay, conditions: Pentan-1-ol, 25 C

SMILES	log K of transfer, water to solvent [log10 K]
Cc1ccccc1C	3.14
c1ccc2cc3ccccc3cc2c1	4.43

same assay, conditions: Propan-1-ol, 25 C

log K of transfer, water to solvent [log10 K]	SMILES
4.33	c1ccc2cc3ccccc3cc2c1

same assay, conditions: Propan-2-ol, 25 C

log K of transfer, water to solvent [log10 K]	SMILES
4.33	c1ccc2cc3ccccc3cc2c1

same assay, conditions: Propionitrile, 25 C

log K of transfer, water to solvent [log10 K]	SMILES
5.04	c1ccc2cc3ccccc3cc2c1

same assay, conditions: Tetrahydrofuran, 25 C

log K of transfer, water to solvent [log10 K]	SMILES
5.68	c1ccc2cc3ccccc3cc2c1

same assay, conditions: Toluene, 25 C

SMILES	log K of transfer, water to solvent [log10 K]
Cc1ccccc1C	3.82
c1ccc2cc3ccccc3cc2c1	5.27

assay: experimental, compiled by the authors from the literature (the ESI cites the sources); details: 1,2-Dichloroethane, 25 C

SMILES	log K of transfer, gas to solvent [log10 K]
Cc1ccccc1C	4.49
O=C1CCCC1	4.59
CCCCl	2.71

same assay, conditions: 2-Methylpropan-1-ol, 25 C

log K of transfer, gas to solvent [log10 K]	SMILES
7.16	c1ccc2cc3ccccc3cc2c1

same assay, conditions: 2-Methylpropan-2-ol, 25 C

log K of transfer, gas to solvent [log10 K]	SMILES
7.12	c1ccc2cc3ccccc3cc2c1
1.88	CCC(C)C

same assay, conditions: 3-Methylbutan-1-ol, 25 C

log K of transfer, gas to solvent [log10 K]	SMILES
7.28	c1ccc2cc3ccccc3cc2c1

same assay, conditions: Acetonitrile, 25 C

log K of transfer, gas to solvent [log10 K]	SMILES
7.66	c1ccc2cc3ccccc3cc2c1

same assay, conditions: Benzene, 25 C

log K of transfer, gas to solvent [log10 K]	SMILES
8.38	c1ccc2cc3ccccc3cc2c1

same assay, conditions: Butan-1-ol, 25 C

SMILES	log K of transfer, gas to solvent [log10 K]
CCCCl	2.32
c1ccc2cc3ccccc3cc2c1	7.42

same assay, conditions: Butan-2-ol, 25 C

log K of transfer, gas to solvent [log10 K]	SMILES
7.26	c1ccc2cc3ccccc3cc2c1

same assay, conditions: Butanone, 25 C

SMILES	log K of transfer, gas to solvent [log10 K]
CCCCl	2.7
c1ccc2cc3ccccc3cc2c1	8.32

same assay, conditions: Butyronitrile, 25 C

log K of transfer, gas to solvent [log10 K]	SMILES
8.17	c1ccc2cc3ccccc3cc2c1

same assay, conditions: CCl4, 25 C

SMILES	log K of transfer, gas to solvent [log10 K]
Cc1ccccc1C	4.53
O=C1CCCC1	4.06
CCCCl	2.71
c1ccc2cc3ccccc3cc2c1	8.17

same assay, conditions: Chlorobenzene, 25 C

log K of transfer, gas to solvent [log10 K]	SMILES
8.45	c1ccc2cc3ccccc3cc2c1

same assay, conditions: Chloroform, 25 C

SMILES	log K of transfer, gas to solvent [log10 K]
Cc1ccccc1C	4.57
CCCCl	2.65
c1ccc2cc3ccccc3cc2c1	8.4

same assay, conditions: Cyclohexane, 25 C

SMILES	log K of transfer, gas to solvent [log10 K]
Cc1ccccc1C	3.98
c1ccc2cc3ccccc3cc2c1	7.52

same assay, conditions: Cyclohexanone, 25 C

log K of transfer, gas to solvent [log10 K]	SMILES
8.53	c1ccc2cc3ccccc3cc2c1
1.89	CCC(C)C

SMILES	log K of transfer, gas to solvent [log10 K]
CCCCl	2.69

same assay, conditions: Decan-1-ol, 25 C

log K of transfer, gas to solvent [log10 K]	SMILES
7.71	c1ccc2cc3ccccc3cc2c1

same assay, conditions: Di-n-butyl ether, 25 C

log K of transfer, gas to solvent [log10 K]	SMILES
3.53	O=C1CCCC1
7.79	c1ccc2cc3ccccc3cc2c1

same assay, conditions: Dichloromethane, 25 C

log K of transfer, gas to solvent [log10 K]	SMILES
8.62	c1ccc2cc3ccccc3cc2c1

same assay, conditions: Diethyl Ether, 25 C

log K of transfer, gas to solvent [log10 K]	SMILES
7.97	c1ccc2cc3ccccc3cc2c1

same assay, conditions: Ethanol, 25 C

log K of transfer, gas to solvent [log10 K]	SMILES
7.62	c1ccc2cc3ccccc3cc2c1

same assay, conditions: Heptan-1-ol, 25 C

log K of transfer, gas to solvent [log10 K]	SMILES
7.58	c1ccc2cc3ccccc3cc2c1

same assay, conditions: Hexadecane, 25 C

SMILES	log K of transfer, gas to solvent [log10 K]
Cc1ccccc1C	3.94
O=C1CCCC1	3.22
CCCCl	2.2

More lines, now with the values ahead:

log K of transfer, gas to solvent [log10 K]	SMILES
7.56	c1ccc2cc3ccccc3cc2c1
2.01	CCC(C)C

same assay, conditions: Hexan-1-ol, 25 C

log K of transfer, gas to solvent [log10 K]	SMILES
7.53	c1ccc2cc3ccccc3cc2c1

same assay, conditions: Hexane, 25 C

SMILES	log K of transfer, gas to solvent [log10 K]
CCCCl	2.47
c1ccc2cc3ccccc3cc2c1	7.45

same assay, conditions: Methanol, 25 C

log K of transfer, gas to solvent [log10 K]	SMILES
7.25	c1ccc2cc3ccccc3cc2c1

same assay, conditions: Octan-1-ol, 25 C

SMILES	log K of transfer, gas to solvent [log10 K]
Cc1ccccc1C	3.9
O=C1CCCC1	3.67
CCCCl	2.24
c1ccc2cc3ccccc3cc2c1	7.55

same assay, conditions: Pentan-1-ol, 25 C

SMILES	log K of transfer, gas to solvent [log10 K]
Cc1ccccc1C	3.8
c1ccc2cc3ccccc3cc2c1	7.46

same assay, conditions: Propan-1-ol, 25 C

log K of transfer, gas to solvent [log10 K]	SMILES
7.36	c1ccc2cc3ccccc3cc2c1

same assay, conditions: Propan-2-ol, 25 C

log K of transfer, gas to solvent [log10 K]	SMILES
7.36	c1ccc2cc3ccccc3cc2c1

same assay, conditions: Propanone, 25 C

log K of transfer, gas to solvent [log10 K]	SMILES
8.22	c1ccc2cc3ccccc3cc2c1

same assay, conditions: Propionitrile, 25 C

log K of transfer, gas to solvent [log10 K]	SMILES
8.07	c1ccc2cc3ccccc3cc2c1

same assay, conditions: Tetrahydrofuran, 25 C

log K of transfer, gas to solvent [log10 K]	SMILES
8.71	c1ccc2cc3ccccc3cc2c1

same assay, conditions: Toluene, 25 C

SMILES	log K of transfer, gas to solvent [log10 K]
Cc1ccccc1C	4.48
c1ccc2cc3ccccc3cc2c1	8.3

same assay, conditions: Water, 25 C

SMILES	log K of transfer, gas to solvent [log10 K]
Cc1ccccc1C	0.66
O=C1CCCC1	3.45
CCCCl	0.24

Further lines, results first:

log K of transfer, gas to solvent [log10 K]	SMILES
3.03	c1ccc2cc3ccccc3cc2c1
-1.75	CCC(C)C
